Biological target: human M4 receptor (Homo sapiens (Human), UniProt P08173)
Experiment: Radioligand (tritiated N-methylscopolamine) binding assay, M4
Details: Ki against the M4 receptor; membranes from CHO cells expressing human M4; tritiated N-methylscopolamine 1.5 nM; read-out: Ki
Procedure, shortened: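 Ki from displacement of 1.5 nM [3H]N-methylscopolamine on membranes of CHO cells expressing each human receptor. Twelve compound concentrations (10 μM to […]), 90 min at 37° C in 50 mM HEPES, 100 mM NaCl, 5 mM MgCl2, 1 mM EDTA, pH 7.4. Bound ligand was captured by PEI-treated glass-fiber filtration and counted.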

Chain of human M4 receptor (P08173 whole entry): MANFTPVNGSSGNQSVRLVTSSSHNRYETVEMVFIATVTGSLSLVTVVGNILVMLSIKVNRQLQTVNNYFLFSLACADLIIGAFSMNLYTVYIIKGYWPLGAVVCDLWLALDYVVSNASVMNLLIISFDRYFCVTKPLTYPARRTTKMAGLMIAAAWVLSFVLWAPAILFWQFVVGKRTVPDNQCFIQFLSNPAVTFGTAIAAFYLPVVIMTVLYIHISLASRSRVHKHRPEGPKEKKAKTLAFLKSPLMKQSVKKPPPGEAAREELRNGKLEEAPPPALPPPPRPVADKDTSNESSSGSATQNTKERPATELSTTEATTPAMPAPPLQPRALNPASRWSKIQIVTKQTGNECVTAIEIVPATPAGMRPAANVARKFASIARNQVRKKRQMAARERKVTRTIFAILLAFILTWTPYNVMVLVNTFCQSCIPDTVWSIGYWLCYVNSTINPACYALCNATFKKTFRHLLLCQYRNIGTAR

Row | Structure (SMILES) | Ki [nM]
1 | Cc1nc(CN2CCC(CCNC(=O)N3CCN(c4cc(F)c(F)c(F)c4)C[C@H]3C)CC2)cs1 [6-12, (2R)-2-methyl-N-(2-{1-[(2-methyl-1,3-thiazol-4-yl)methyl]piperidin-4-yl}ethyl)-4-(3,4,5-trifluorophenyl)piperazine-1-carboxamide] | 10 to 100
2 | C[C@@H]1CN(c2cc(F)c(F)c(F)c2)CCN1C(=O)NCCC1CCN(Cc2ccccc2OC(F)F)CC1 [6-13, (2R)-N-[2-(1-{[2-(difluoromethoxy)phenyl]methyl}piperidin-4-yl)ethyl]-2-methyl-4-(3,4,5-trifluorophenyl)piperazine-1-carboxamide] | 10 to 100
3 | CC(c1ccccc1)N1CCC(CCNC(=O)N2CCN(c3cc(F)c(F)c(F)c3)C[C@H]2C)CC1 (stereo partly drawn) [6-14, (2R)-2-methyl-N-{2-[1-(1-phenylethyl)piperidin-4-yl]ethyl}-4-(3,4,5-trifluorophenyl)piperazine-1-carboxamide] | 10 to 100
4 | O=C(NCCC1CCN(Cc2ccc(F)cc2)CC1)c1ccc(OCc2ccccc2)cc1 [6-15, 4-(benzyloxy)-N-(2-{1-[(4-fluorophenyl)methyl]piperidin-4-yl}ethyl)benzamide] | 10 to 100
5 | C[C@@H]1CN(c2cc(F)c(F)c(F)c2)CCN1C(=O)NCCC1CCN(Cc2ccc(C(N)=O)cc2)CC1 [6-16, (2R)-N-(2-{1-[(4-carbamoylphenyl)methyl]piperidin-4-yl}ethyl)-2-methyl-4-(3,4,5-trifluorophenyl)piperazine-1-carboxamide] | 10 to 100
6 | C[C@@H]1CN(c2cc(F)c(F)c(F)c2)CCN1C(=O)NCCC1CCN(Cc2cccc(F)c2F)CC1 [6-17, (2R)-N-(2-{1-[(2,3-difluorophenyl)methyl]piperidin-4-yl}ethyl)-2-methyl-4-(3,4,5-trifluorophenyl)piperazine-1-carboxamide] | 10 to 100
7 | C[C@@H]1CN(c2cc(F)c(F)c(F)c2)CCN1C(=O)NCCC1CCN(Cc2cccc(C#N)c2)CC1 [6-18, (2R)-N-(2-{1-[(3-cyanophenyl)methyl]piperidin-4-yl}ethyl)-2-methyl-4-(3,4,5-trifluorophenyl)piperazine-1-carboxamide] | 10 to 100
8 | Cc1nnc(C(c2ccccc2)N2CCC(CCNC(=O)N3CCN(c4cc(F)c(F)c(F)c4)C[C@H]3C)CC2)o1 (stereo partly drawn) [6-19, (2R)-2-methyl-N-(2-{1-[(5-methyl-1,3,4-oxadiazol-2-yl)(phenyl)methyl]piperidin-4-yl}ethyl)-4-(3,4,5-trifluorophenyl)piperazine-1-carboxamide] | 100 to 1000
9 | C[C@@H]1CN(c2cc(F)c(F)c(F)c2)CCN1C(=O)NCCC1CCN(Cc2cccc(OC(F)(F)F)c2)CC1 [6-20, (2R)-2-methyl-N-[2-(1-{[3-(trifluoromethoxy)phenyl]methyl}piperidin-4-yl)ethyl]-4-(3,4,5-trifluorophenyl)piperazine-1-carboxamide] | 100 to 1000
10 | C[C@@H]1CN(c2cc(F)c(F)c(F)c2)CCN1C(=O)NCCC1CCN(Cc2ccccc2OC(F)(F)F)CC1 [6-21, (2R)-2-methyl-N-[2-(1-{[2-(trifluoromethoxy)phenyl]methyl}piperidin-4-yl)ethyl]-4-(3,4,5-trifluorophenyl)piperazine-1-carboxamide] | 100 to 1000
11 | C[C@@H]1CN(c2cc(F)c(F)c(F)c2)CCN1C(=O)NCCC1CCN(Cc2ccc(F)c(F)c2F)CC1 [6-22, (2R)-2-methyl-4-(3,4,5-trifluorophenyl)-N-(2-{1-[(2,3,4-trifluorophenyl)methyl]piperidin-4-yl}ethyl)piperazine-1-carboxamide] | 100 to 1000
12 | C[C@@H]1CN(c2cc(F)c(F)c(F)c2)CCN1C(=O)NCCC1CCN(Cc2cc(F)cc(F)c2)CC1 [6-23, (2R)-N-(2-{1-[(3,5-difluorophenyl)methyl]piperidin-4-yl}ethyl)-2-methyl-4-(3,4,5-trifluorophenyl)piperazine-1-carboxamide] | 100 to 1000
13 | C[C@@H]1CN(c2cc(F)c(F)c(F)c2)CCN1C(=O)NCCC1CCN(Cc2ccc(OC(F)(F)F)cc2)CC1 [6-24, (2R)-2-methyl-N-[2-(1-{[4-(trifluoromethoxy)phenyl]methyl}piperidin-4-yl)ethyl]-4-(3,4,5-trifluorophenyl)piperazine-1-carboxamide] | 100 to 1000
14 | C[C@@H]1CN(c2cc(F)c(F)c(F)c2)CCN1C(=O)NCCC1CCN(Cc2cc(F)ccc2F)CC1 [6-25, (2R)-N-(2-{1-[(2,5-difluorophenyl)methyl]piperidin-4-yl}ethyl)-2-methyl-4-(3,4,5-trifluorophenyl)piperazine-1-carboxamide] | 100 to 1000
15 | C[C@@H]1CN(c2cc(F)c(F)c(F)c2)CCN1C(=O)NCCC1CCN(Cc2c(F)cccc2F)CC1 [6-28, (2R)-N-(2-{1-[(2,6-difluorophenyl)methyl]piperidin-4-yl}ethyl)-2-methyl-4-(3,4,5-trifluorophenyl)piperazine-1-carboxamide] | 100 to 1000
16 | C[C@@H]1CN(c2cc(F)c(F)c(F)c2)CCN1C(=O)NCCC1CCN(Cc2ccccc2C#N)CC1 [6-29, (2R)-N-(2-{1-[(2-cyanophenyl)methyl]piperidin-4-yl}ethyl)-2-methyl-4-(3,4,5-trifluorophenyl)piperazine-1-carboxamide] | 100 to 1000
17 | C[C@@H]1CN(c2cc(F)c(F)c(F)c2)CCN1C(=O)NCCC1CCN(Cc2ccc(C#N)cc2F)CC1 [6-30, (2R)-N-(2-{1-[(4-cyano-2-fluorophenyl)methyl]piperidin-4-yl}ethyl)-2-methyl-4-(3,4,5-trifluorophenyl)piperazine-1-carboxamide] | 100 to 1000
18 | C[C@@H]1CN(c2ncc(C(F)(F)F)cn2)CCN1C(=O)NCCC1CCN(Cc2ccncc2)CC1 [6-31, (2R)-2-methyl-N-{2-[1-(pyridin-4-ylmethyl)piperidin-4-yl]ethyl}-4-[5-(trifluoromethyl)pyrimidin-2-yl]piperazine-1-carboxamide] | 100 to 1000
19 | C[C@@H]1CN(c2ncc(C(F)(F)F)cn2)CCN1C(=O)NCCC1CCN(Cc2cccnc2)CC1 [6-32, (2R)-2-methyl-N-{2-[1-(pyridin-3-ylmethyl)piperidin-4-yl]ethyl}-4-[5-(trifluoromethyl)pyrimidin-2-yl]piperazine-1-carboxamide] | 10 to 100
20 | C[C@@H]1CN(c2ncc(C(F)(F)F)cn2)CCN1C(=O)NCCC1CCN(Cc2ccccn2)CC1 [6-33, (2R)-2-methyl-N-{2-[1-(pyridin-2-ylmethyl)piperidin-4-yl]ethyl}-4-[5-(trifluoromethyl)pyrimidin-2-yl]piperazine-1-carboxamide] | 100 to 1000
21 | C[C@@H]1CN(c2ncc(C(F)(F)F)cn2)CCN1C(=O)NCCC1CCN(Cc2ccccc2C#N)CC1 [6-34, (2R)-N-(2-{1-[(2-cyanophenyl)methyl]piperidin-4-yl}ethyl)-2-methyl-4-[5-(trifluoromethyl)pyrimidin-2-yl]piperazine-1-carboxamide] | 100 to 1000
22 | C[C@@H]1CN(c2ncc(C(F)(F)F)cn2)CCN1C(=O)NCCC1CCN(Cc2ccccc2F)CC1 [6-38, (2R)-N-(2-{1-[(2-fluorophenyl)methyl]piperidin-4-yl}ethyl)-2-methyl-4-[5-(trifluoromethyl)pyrimidin-2-yl]piperazine-1-carboxamide] | 10 to 100
23 | C[C@@H]1CN(c2ncc(C(F)(F)F)cn2)CCN1C(=O)NCCC1CCN(Cc2cncnc2)CC1 [6-39, (2R)-2-methyl-N-{2-[1-(pyrimidin-5-ylmethyl)piperidin-4-yl]ethyl}-4-[5-(trifluoromethyl)pyrimidin-2-yl]piperazine-1-carboxamide] | 100 to 1000
24 | C[C@@H]1CN(c2ncc(C(F)(F)F)cn2)CCN1C(=O)NCCC1CCN(Cc2ccc(C#N)cc2)CC1 [6-41, (2R)-N-(2-{1-[(4-cyanophenyl)methyl]piperidin-4-yl}ethyl)-2-methyl-4-[5-(trifluoromethyl)pyrimidin-2-yl]piperazine-1-carboxamide] | 10 to 100
25 | C[C@@H]1CN(c2ncc(C#N)cn2)C[C@H](C)N1C(=O)NCCC1CCN(Cc2ccc(N(C)C)cc2)CC1 [6-43, (2R,6S)-4-(5-cyanopyrimidin-2-yl)-N-[2-(1-{[4-(dimethylamino)-phenyl]methyl}piperidin-4-yl)ethyl]-2,6-dimethylpiperazine-1-carboxamide] | 10 to 100
26 | C[C@@H]1CN(c2ncc(C#N)cn2)C[C@H](C)N1C(=O)NCCC1CCN(CCc2ccccc2)CC1 [6-44, (2R,6S)-4-(5-cyanopyrimidin-2-yl)-2,6-dimethyl-N-{2-[1-(2-phenylethyl)piperidin-4-yl]ethyl}piperazine-1-carboxamide] | 100 to 1000
27 | C[C@@H]1CN(c2ncc(C#N)cn2)C[C@H](C)N1C(=O)NCCC1CCN(Cc2ccc(C#N)cc2)CC1 [6-45, (2R,6S)-N-(2-{1-[(4-cyanophenyl)methyl]piperidin-4-yl}ethyl)-4-(5-cyanopyrimidin-2-yl)-2,6-dimethylpiperazine-1-carboxamide] | 100 to 1000
28 | Cc1cc(CN2CCC(CCNC(=O)N3[C@H](C)CN(c4cnc(C(F)(F)F)nc4)C[C@@H]3C)CC2)ccc1O [6-49, (2R,6S)-N-(2-{1-[(4-hydroxy-3-methylphenyl)methyl]piperidin-4-yl}ethyl)-2,6-dimethyl-4-[2-(trifluoromethyl)pyrimidin-5-yl]piperazine-1-carboxamide] | 100 to 1000
29 | C[C@@H]1CN(c2cnc(C(F)(F)F)nc2)C[C@H](C)N1C(=O)NCCC1CCN(Cc2cccc(F)c2)CC1 [6-51, (2R,6S)-N-(2-{1-[(3-fluorophenyl)methyl]piperidin-4-yl}ethyl)-2,6-dimethyl-4-[2-(trifluoromethyl)pyrimidin-5-yl]piperazine-1-carboxamide] | 10 to 100
30 | C[C@@H]1CN(c2cnc(C(F)(F)F)nc2)C[C@H](C)N1C(=O)NCCC1CCN(Cc2ccccc2F)CC1 [6-52, (2R,6S)-N-(2-{1-[(2-fluorophenyl)methyl]piperidin-4-yl}ethyl)-2,6-dimethyl-4-[2-(trifluoromethyl)pyrimidin-5-yl]piperazine-1-carboxamide] | 10 to 100
